The record followed here is US9914712B2, “Antibacterial thiazolecarboxylic acids” (priority 2013, dated 2018).

In one experiment the test system is NTBC039. The experiment is described as follows: MIC of meropenem in presence of the inhibitor, broth microdilution. It counts as cell-based. The note with it: compound at 100 μM, 37° C., 18-20 h. In general terms: In broth dilution the organism is exposed to a series of concentrations in liquid medium.
Experiment [1] has as its system NTBC020 Strain: Escherichia coli producing NDM-1+TEM-1+CTX-M-15. The experiment is described as above. It counts as cell-based. The note with it: compound at 100 μM, 37° C., 18-20 h. The procedure:
(§1) The minimal inhibitory concentration (MIC) of meropenem in presence of the inhibitor is routinely assessed against 3 representative clinical strains: • NTBC020 Strain: Escherichia coli producing NDM-1+TEM-1+CTX-M-15, (isolated in Australia in 2009); • NTBC023 strain: Klebsiella pneumoniae producing VIM-1+SHV-5, (isolated in France in 2002); • NTBC062 strain: Klebsiella pneumoniae producing IMP-1+TEM-1, (isolated in France in 2012);
(§2) The assay was performed according to the standard broth microdilution method described by the Clinical and Laboratory Standards Institute (CLSI-M7-A7—Methods for dilution antimicrobial susceptibility tests for bacteria that grow aerobically; Approved standard; CLSI, Wayne, Pa., USA. 2006). This method involves the use of small volumes of broth dispensed in sterile, plastic 96-wells microdilution plates. The compounds were tested at a concentration of 100 μM and controls included the susceptibility tests for the three selected strains without the compounds and for the two reference strains E. coli ATCC 25922 and Pseudomonas aeruginosa ATCC 27853 as Quality Controls.
(§3) From a stock solution at 20 mM in DMSO, compounds were prepared by diluting 0.04 mL of the compound solution in 0.04 mL of Mueller-Hinton (MH) broth (2-fold dilution). Then, 0.001 mL of the compound dilution was distributed in the 96-wells microdilution plates to give a final concentration of 100 μM for a final volume of 0.1 mL by well.
(§4) From a meropenem stock solution at 10 mg/ml in water, meropenem 2-fold serial dilutions were prepared in MH broth at twice the desired final concentrations, e.g from 512 to 0.0037 μg/ml. The 96-wells microdilution plates were then filled with 0.05 mL of the meropenem dilutions. For each susceptibility test, two wells were left free of antibiotic and filled with 0.05 mL of sterile MH broth to serve as growth controls.
(§5) The bacterial inoculum was prepared by direct colony suspension from a 24 h-agar plate in saline solution (NaCl 9 g/L). The suspension was adjusted to a 0.5 MacFarland turbidity standard (1-2×10^8 CFU/mL) and then diluted 1:100 in MH broth. 0.05 mL of the bacterial dilution was then inoculated to each well giving a final volume of 0.1 mL and a final bacterial concentration of approximately 5×10^5 CFU/mL.
(§6) Microdilution plates were incubated at 37° C. in an ambient air incubator for 18-20 h.

For experiment [2], the system named is NTBC023 strain: Klebsiella pneumoniae producing VIM-1+SHV-5. The experiment is described as above. The note with it: compound at 100 μM, 37° C., 18-20 h. It counts as cell-based. The procedure:
as §1, §2, §3, §4, §5, §6

Another experiment addresses T1, NDM-1 (Klebsiella pneumoniae, UniProt C7C422).
T1 construct: made in house
In words: In vitro MBL inhibition assay, imipenem hydrolysis (NDM-1). It counts as biochemical. The note with it: Ki NDM-1, imipenem substrate, Ki from IC50 by Cheng-Prusoff, Km 70 μM. The method, then: NDM-1 is produced and purified as disclosed in Yong et al, Antimicrobial Agents & Chemotherapy, (2009) 53(12), 5046-54.
(§7) Reaction buffers were prepared in a UV-transparent 96-well microplate, which buffer contains 10 mM HEPES pH 7.5, 50 μM ZnSO4, 20 μg/mL BSA. An amount of 75 ng of protein was added to each well.
(§8) Spectrophometric assays are performed to determine NDM-1/VIM-2/IMP-1 carbapenemase activity using purified proteins (50 ng for NDM-1/VIM-2, 25 ng IMP-1) from NDM-1/VIM-2/IMP-1 expressing bacteria using […] of imipenem as substrate in 10 mM HEPES pH 7.5, 50 μM ZnSO4. MBL hydrolysis is measured at 299 nm for 10 minutes at 30° C. as the absorbance changes due to the opening of beta-lactam ring of the antibiotic.
(§9) The Ki values obtained for selected example compounds are shown in Table 3, where they are compared with the values for pyridine-2-carboxylic acid.

A further experiment deals with T2, VIM-2 (Escherichia coli, UniProt Q5U7L7).
T2 construct: made in house
The experiment is described as follows: In vitro MBL inhibition assay, imipenem hydrolysis (VIM-2). It counts as biochemical. The note with it: Ki VIM-2, imipenem substrate, Ki from IC50 by Cheng-Prusoff, Km 9 μM. The method, then: The MBL enzyme VIM-2 is produced and purified as disclosed in Borgianni et al, Antimicrobial Agents & Chemotherapy, (2010), 54(8), 3197-3204.
as §7, §8, §9

The next experiment has as its target T3, IMP-1 (Serratia marcescens, UniProt P52699).
T3 construct: made in house
In words: In vitro MBL inhibition assay, imipenem hydrolysis (IMP-1). The note with it: Ki IMP-1, imipenem substrate, Ki from IC50 by Cheng-Prusoff, Km 25 μM. It counts as biochemical. The procedure:
The MBL enzyme IMP-1 is produced and purified as disclosed in Laraki et al, Antimicrobial Agents & Chemotherapy, (1999), 43(4), 902-906.
as §7, §8, §9

T3 sequence (P52699 19-246, species assumed): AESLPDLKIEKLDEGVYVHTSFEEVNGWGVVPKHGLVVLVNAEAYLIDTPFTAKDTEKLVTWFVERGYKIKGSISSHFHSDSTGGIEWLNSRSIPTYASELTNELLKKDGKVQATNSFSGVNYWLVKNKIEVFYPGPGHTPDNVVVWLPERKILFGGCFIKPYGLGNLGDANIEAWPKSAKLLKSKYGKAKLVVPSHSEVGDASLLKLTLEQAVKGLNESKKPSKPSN
T1 sequence (C7C422 29-270 limits assumed): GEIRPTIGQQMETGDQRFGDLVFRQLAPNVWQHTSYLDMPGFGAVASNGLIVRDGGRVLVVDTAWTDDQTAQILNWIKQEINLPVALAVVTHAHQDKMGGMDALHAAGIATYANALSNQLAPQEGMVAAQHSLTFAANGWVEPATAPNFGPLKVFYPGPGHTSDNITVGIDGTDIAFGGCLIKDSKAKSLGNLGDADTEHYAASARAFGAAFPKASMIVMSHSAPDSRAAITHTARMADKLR

For `O=C(O)c1ncsc1NS(=O)(=O)N1CCc2ccccc21` [Compound 147, 5-[(2,3-dihydroindole-1-sulfonyl)amino]-1,3-thiazole-4-carboxylic acid], the MIC of meropenem, strain NTBC039 in the experiment on NTBC039 stood at 4 µg/mL. In addition, in experiment [1], the MIC of meropenem, strain NTBC020 stood at 8 µg/mL. The MIC of meropenem, strain NTBC023 in experiment [2] amounted to 16 µg/mL.
On to `O=C(O)c1nc(-c2ccccc2)sc1NS(=O)(=O)c1ccccc1` [Compound 58, 5-benzenesulfonamido-2-phenyl-1,3-thiazole-4-carboxylic acid], for which the inhibition constant Ki on NDM-1 is 2300 nM; at VIM-2, 800 nM; on IMP-1, 70 nM.
For `O=C(O)c1ncsc1NS(=O)(=O)CCc1cccnc1` [Compound 151, 5-[2-(pyridin-3-yl)ethylsulfonamido]-1,3-thiazole-4-carboxylic acid], in that order: 3200 nM, 100 nM and 1800 nM.
The like results for `O=C(O)c1ncsc1NS(=O)(=O)CCc1ccccc1` [Compound 7, 5-(2-phenylethylsulfonamido)thiazole-4-carboxylic acid] were, in that order, 750 nM, 80 nM and 30 nM.
Regarding `O=C(O)c1ncsc1NS(=O)(=O)c1ccc(C2CCNCC2)cc1` [Compound 118, 5-{[4-(piperidin-4-yl)phenyl]sulfonamido}-1,3-thiazole-4-carboxylic acid], in the experiment with NTBC039, the MIC of meropenem, strain NTBC039 is 4 µg/mL. Besides, the MIC of meropenem, strain NTBC020 in experiment [1] was found to be 4 µg/mL. In addition, the MIC of meropenem, strain NTBC023 in experiment [2] was determined as 8 µg/mL.
Consider `O=C(O)c1ccccn1` [Pyridine-2-carboxylic acid, pyridine-2-carboxylic acid, reference compound], for which the Ki on NDM-1 was 3000 nM; at VIM-2, 1000 nM; at IMP-1 it was 300000 nM.
On to `O=C(O)c1ncsc1NS(=O)(=O)Cc1cccc(Cl)c1Cl` [Compound 48, 5-{[(2,3-dichlorophenyl)methyl]sulfonamido}-1,3-thiazole-4-carboxylic acid], for which, in the experiment with NTBC039, the MIC of meropenem, strain NTBC039 was found to be 0.25 µg/mL. Moreover, the MIC of meropenem, strain NTBC020 in experiment [1] amounted to 4 µg/mL. Also, the MIC of meropenem, strain NTBC023 in experiment [2] is 2 µg/mL.
For the compound `O=C(O)c1ncsc1NS(=O)(=O)CCCc1ccccc1` [Compound 101, 5-[(3-phenylpropyl)sulfonamido]-1,3-thiazole-4-carboxylic acid], in the experiment on NTBC039, the MIC of meropenem, strain NTBC039 came to 1 µg/mL. Besides, the MIC of meropenem, strain NTBC020 in experiment [1] stood at 32 µg/mL. In experiment [2], the MIC of meropenem, strain NTBC023 stood at 8 µg/mL.
Consider `CN(c1ccccc1)S(=O)(=O)Nc1scnc1C(=O)O` [Compound 88, 5-{[methyl(phenyl)sulfamoyl]amino}-1,3-thiazole-4-carboxylic acid], for which the figures for the Ki on NDM-1, at VIM-2 and at IMP-1 were 1000 nM, 160 nM and 580 nM, respectively.
For `O=C(O)c1ncsc1NS(=O)(=O)Cc1ccccc1` [Compound 5, 5-(phenylmethylsulfonamido)thiazole-4-carboxylic acid], in that order: 2500 nM, 210 nM and 50 nM.
The like results for `Cc1c(S(=O)(=O)Nc2scnc2C(=O)O)cnn1-c1ccccc1` [Compound 81, 5-[(5-methyl-1-phenyl-1H-pyrazol-4-yl)sulfonamido]-1,3-thiazole-4-carboxylic acid] were, in that order, 130 nM, 30 nM and 410 nM.
As to `O=C(O)c1ncsc1NS(=O)(=O)Cc1cc2c(cc1Cl)OCO2` [Compound 144, 5-[(6-chloro-2H-1,3-benzodioxol-5-yl)methylsulfonamido]-1,3-thiazole-4-carboxylic acid], the MIC of meropenem, strain NTBC039 in the experiment with NTBC039 came out at 1 µg/mL. In addition, the MIC of meropenem, strain NTBC020 in experiment [1] turned out to be 16 µg/mL. In experiment [2], the MIC of meropenem, strain NTBC023 is 8 µg/mL.
With `O=C(O)c1ncsc1NS(=O)(=O)c1ccc(-c2ccccc2)s1` [Compound 20, 5-(5-phenylthiophene-2-sulfonamido)thiazole-4-carboxylic acid], the Ki turned out to be 940 nM at NDM-1, 480 nM at VIM-2 and 100 nM on IMP-1.
On to `O=C(O)c1ncsc1NS(=O)(=O)Cc1cccc(F)c1F` [Compound 124, 5-{[(2,3-difluorophenyl)methyl]sulfonamido}-1,3-thiazole-4-carboxylic acid], for which the MIC of meropenem, strain NTBC039 in the experiment with NTBC039 came out at 0.25 µg/mL. Moreover, the MIC of meropenem, strain NTBC020 in experiment [1] amounted to 4 µg/mL. In experiment [2], the MIC of meropenem, strain NTBC023 is 4 µg/mL.
As to `O=C(O)c1ncsc1NS(=O)(=O)CCN1C(=O)c2ccccc2C1=O` [Compound 63, 5-{[2-(1,3-dioxo-2,3-dihydro-1H-isoindol-2-yl)ethyl]sulfonamido}-1,3-thiazole-4-carboxylic acid], the values for the Ki at NDM-1, on VIM-2 and at IMP-1 were 600 nM, 130 nM and 1700 nM, respectively.
With `O=C(O)c1ncsc1NS(=O)(=O)C1CCc2ccccc21` (stereo not drawn) [Compound 104, 5-(2,3-dihydro-1H-indene-1-sulfonamido)-1,3-thiazole-4-carboxylic acid], the MIC of meropenem, strain NTBC039 in the experiment with NTBC039 turned out to be 2 µg/mL. The MIC of meropenem, strain NTBC020 in experiment [1] came out at 16 µg/mL. In addition, in experiment [2], the MIC of meropenem, strain NTBC023 turned out to be 4 µg/mL.
Turning to `O=C(O)c1ncsc1NS(=O)(=O)N1CCCCC1` [Compound 75, 5-[(piperidine-1-sulfonyl)amino]-1,3-thiazole-4-carboxylic acid], the Ki on NDM-1 was determined as 2100 nM; at VIM-2 it was 340 nM; on IMP-1, 940 nM.
In the case of `CC(c1ccccc1)S(=O)(=O)Nc1scnc1C(=O)O` (stereo not drawn) [Compound 60, 5-[(1-phenylethyl)sulfonamido]-1,3-thiazole-4-carboxylic acid], the values for the Ki at NDM-1, at VIM-2 and on IMP-1 were 800 nM, 100 nM and 70 nM, respectively.
For `CC(=O)Nc1ccc(S(=O)(=O)Nc2scnc2C(=O)O)cc1` [Compound 78, 5-[(4-acetamidophenyl)sulfonamido]-1,3-thiazole-4-carboxylic acid], in that order: 160 nM, 400 nM and 50 nM.
As to `O=C(O)c1ncsc1NS(=O)(=O)c1ccccc1Cl` [Compound 66, 5-[(2-chlorophenyl)sulfonamido]-1,3-thiazole-4-carboxylic acid], the MIC of meropenem, strain NTBC039 in the experiment with NTBC039 is 8 µg/mL. In experiment [1], the MIC of meropenem, strain NTBC020 was determined as 16 µg/mL. Further, the MIC of meropenem, strain NTBC023 in experiment [2] came out at 8 µg/mL.
As to `CN(Cc1ccccc1)S(=O)(=O)Nc1scnc1C(=O)O` [Compound 77, 5-{[benzyl(methyl)sulfamoyl]amino}-1,3-thiazole-4-carboxylic acid], the Ki on NDM-1 was determined as 1300 nM; at VIM-2, 30 nM; at IMP-1, 120 nM.
Take `Cc1nc(C(=O)O)c(NS(=O)(=O)Cc2ccccc2)s1` [Compound 50, 5-benzylsulfonamido-2-methyl-1,3-thiazole-4-carboxylic acid]: the values for the Ki at NDM-1, at VIM-2 and on IMP-1 were 1700 nM, 260 nM and 60 nM, respectively.
The like results for `O=C(O)c1nc(C(F)(F)F)sc1NS(=O)(=O)Cc1ccccc1Cl` [Compound 96, 5-{[(2-chlorophenyl)methyl]sulfonamido}-2-(trifluoromethyl)-1,3-thiazole-4-carboxylic acid] were, in that order, 2700 nM, 350 nM and 1200 nM.

As a reminder, the Ki is a dissociation constant, usually derived from enzyme kinetics or from competition with a known ligand.
